ChEMBL document CHEMBL5247606, “Advances of targeting the YAP/TAZ-TEAD complex in the hippo pathway for the treatment of cancers” (Eur J Med Chem, 2022)

Legend:
[1] = target: Transcriptional coactivator YAP1 (Homo sapiens) (UniProt P46937); assay: Inhibition of YAP (unknown origin) phosporylation relative to control; conditions: concentration not given here
[2] = target: T1, Serine/threonine-protein kinase LATS1 (Homo sapiens) (UniProt O95835); assay: Inhibition of LATS1 (unknown origin) phosporylation relative to control; conditions: dose 10.0 µM
T1 sequence (whole entry): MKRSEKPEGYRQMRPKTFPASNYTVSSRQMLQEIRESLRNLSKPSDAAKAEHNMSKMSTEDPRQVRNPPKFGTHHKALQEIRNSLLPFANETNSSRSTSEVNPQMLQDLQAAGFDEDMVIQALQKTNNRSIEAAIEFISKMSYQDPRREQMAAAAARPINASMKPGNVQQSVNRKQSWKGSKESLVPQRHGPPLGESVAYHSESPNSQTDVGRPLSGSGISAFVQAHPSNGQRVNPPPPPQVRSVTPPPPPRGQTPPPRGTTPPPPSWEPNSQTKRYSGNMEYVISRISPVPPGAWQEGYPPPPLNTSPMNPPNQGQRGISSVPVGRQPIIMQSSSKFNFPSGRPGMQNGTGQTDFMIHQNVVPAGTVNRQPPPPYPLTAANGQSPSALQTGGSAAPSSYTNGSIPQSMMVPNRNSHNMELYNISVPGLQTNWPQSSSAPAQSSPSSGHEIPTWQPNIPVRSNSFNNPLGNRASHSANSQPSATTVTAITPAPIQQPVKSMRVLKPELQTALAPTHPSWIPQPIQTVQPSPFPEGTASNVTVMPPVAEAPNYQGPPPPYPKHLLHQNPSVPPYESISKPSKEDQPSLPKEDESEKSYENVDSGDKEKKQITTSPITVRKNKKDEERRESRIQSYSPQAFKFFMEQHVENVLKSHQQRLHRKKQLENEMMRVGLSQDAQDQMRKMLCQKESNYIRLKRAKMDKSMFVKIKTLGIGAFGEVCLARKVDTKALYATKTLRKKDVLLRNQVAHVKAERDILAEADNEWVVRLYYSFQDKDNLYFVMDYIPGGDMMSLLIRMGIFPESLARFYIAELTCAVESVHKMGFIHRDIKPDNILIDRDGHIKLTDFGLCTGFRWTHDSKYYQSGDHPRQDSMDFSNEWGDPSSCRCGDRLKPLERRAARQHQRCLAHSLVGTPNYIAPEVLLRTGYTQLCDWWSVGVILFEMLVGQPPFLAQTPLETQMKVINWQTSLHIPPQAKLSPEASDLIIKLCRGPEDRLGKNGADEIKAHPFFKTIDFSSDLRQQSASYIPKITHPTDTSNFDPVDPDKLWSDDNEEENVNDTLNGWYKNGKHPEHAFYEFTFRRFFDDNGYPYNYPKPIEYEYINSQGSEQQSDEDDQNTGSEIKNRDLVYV

Sequence of Transcriptional coactivator YAP1 (Homo sapiens) (P46937 whole entry): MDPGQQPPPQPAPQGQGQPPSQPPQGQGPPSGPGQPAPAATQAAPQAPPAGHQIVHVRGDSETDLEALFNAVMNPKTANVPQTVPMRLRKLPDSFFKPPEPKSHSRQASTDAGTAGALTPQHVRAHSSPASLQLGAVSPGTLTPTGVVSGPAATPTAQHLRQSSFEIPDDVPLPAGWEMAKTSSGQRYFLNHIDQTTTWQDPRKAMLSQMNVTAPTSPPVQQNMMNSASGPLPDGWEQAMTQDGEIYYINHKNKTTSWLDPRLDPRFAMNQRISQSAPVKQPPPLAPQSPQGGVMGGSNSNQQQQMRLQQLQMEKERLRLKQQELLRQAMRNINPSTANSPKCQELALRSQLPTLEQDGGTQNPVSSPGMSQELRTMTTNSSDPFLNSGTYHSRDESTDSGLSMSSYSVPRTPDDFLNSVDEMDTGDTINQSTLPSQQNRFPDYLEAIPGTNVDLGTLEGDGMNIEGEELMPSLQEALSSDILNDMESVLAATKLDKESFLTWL

inhibition [1]: < 30%
inhibition [2]: < 30%
SMILES: CCOc1cc2ncc(C#N)c(Nc3ccc(OCc4ccccn4)c(Cl)c3)c2cc1NC(=O)/C=C/CN(C)C
